ChEMBL document CHEMBL3885861, “Open TG-GATES”

Organism: Rattus norvegicus
Test: Open TG-GATES - Regimen: Single
Format: toxicity, organism-based, Sprague-Dawley
Set-up: regimen Single, gender Male, age 6 weeks
Details: in vivo, po, 0 mg/kg, route gavage, dose level Control; for APTT / Bas / Eos / Fbg / Hb / Ht / Lym / MCH / MCHC / MCV / Mono / Neu / PT / Plat / RBC / Ret / WBC: tissue Blood; for KIDNEY_L / KIDNEY_R / KIDNEY_TOTAL: tissue Kidney; for LIVER: tissue Liver; for A/G / ALP / ALT / AST / BUN / CRE / Ca / Cl / DBIL / GLC / IP / K / LDH / Na / PL / RALB / TBIL / TC / TG / TP / gamma-GTP: tissue Plasma

CCc1oc2ccccc2c1C(=O)c1cc(I)c(O)c(I)c1 [BENZIODARONE]
TERMINAL_BW (3 h): 211.5 g
APTT (3 h): 16.8 s
Bas (3 h): 0%
Eos (3 h): 0.4%
Fbg (3 h): 205.2 mg/dL
Hb (3 h): 13.7 g/dL
Ht (3 h): 40.7%
Lym (3 h): 81.8%
MCH (3 h): 22 pg
MCHC (3 h): 33.6%
MCV (3 h): 65.5 fL
Mono (3 h): 8%
Neu (3 h): 9.6%
PT (3 h): 11.9 s
Plat (3 h): 114.1 x10_4/uL
RBC (3 h): 621 x10_4/ul
Ret (3 h): 9.1%
WBC (3 h): 100.3 x10_2/uL
KIDNEY_L (3 h): 1 g
KIDNEY_R (3 h): 1 g
KIDNEY_TOTAL (3 h): 2 g
LIVER (3 h): 9.9 g
A/G (3 h): 2.2
ALP (3 h): 888.8 IU/L
ALT (3 h): 33.4 IU/L
AST (3 h): 64 IU/L
BUN (3 h): 12.8 mg/dL
CRE (3 h): 0.5 mg/dL
Ca (3 h): 10.8 mg/dL
Cl (3 h): 104.2 meq/L
DBIL (3 h): 0.006 mg/dL
GLC (3 h): 191.8 mg/dL
IP (3 h): 9.6 mg/dL
K (3 h): 4.6 meq/L
LDH (3 h): 93.2 IU/L
Na (3 h): 141.4 meq/L
PL (3 h): 146 mg/dL
RALB (3 h): 3.8 g/dL
TBIL (3 h): 0.3 mg/dL
TC (3 h): 79.4 mg/dL
TG (3 h): 59.8 mg/dL
TP (3 h): 5.5 g/dL
gamma-GTP (3 h): 1.4 IU/L
TERMINAL_BW (6 h): 210.7 g
APTT (6 h): 17.7 s
Bas (6 h): 0%
Eos (6 h): 0.8%
Fbg (6 h): 204.4 mg/dL
Hb (6 h): 13.8 g/dL
Ht (6 h): 41.4%
Lym (6 h): 84%
MCH (6 h): 21.7 pg
MCHC (6 h): 33.3%
MCV (6 h): 65.1 fL
Mono (6 h): 5%
Neu (6 h): 10.6%
PT (6 h): 12 s
Plat (6 h): 116.7 x10_4/uL
RBC (6 h): 636.4 x10_4/ul
Ret (6 h): 11.3%
WBC (6 h): 115.5 x10_2/uL
KIDNEY_L (6 h): 1 g
KIDNEY_R (6 h): 1 g
KIDNEY_TOTAL (6 h): 1.9 g
LIVER (6 h): 9.5 g
A/G (6 h): 2.2
ALP (6 h): 852.8 IU/L
ALT (6 h): 33 IU/L
AST (6 h): 62 IU/L
BUN (6 h): 9.8 mg/dL
CRE (6 h): 0.5 mg/dL
Ca (6 h): 10.6 mg/dL
Cl (6 h): 104.6 meq/L
DBIL (6 h): 0.046 mg/dL
GLC (6 h): 180.2 mg/dL
IP (6 h): 9.3 mg/dL
K (6 h): 4.6 meq/L
LDH (6 h): 81.2 IU/L
Na (6 h): 141.4 meq/L
PL (6 h): 126.6 mg/dL
RALB (6 h): 3.7 g/dL
TBIL (6 h): 0.4 mg/dL
TC (6 h): 71.4 mg/dL
TG (6 h): 57.6 mg/dL
TP (6 h): 5.4 g/dL
gamma-GTP (6 h): 1.4 IU/L
TERMINAL_BW (9 h): 208.6 g
APTT (9 h): 18 s
Bas (9 h): 0%
Eos (9 h): 1%
Fbg (9 h): 199 mg/dL
Hb (9 h): 13.6 g/dL
Ht (9 h): 40%
Lym (9 h): 77.6%
MCH (9 h): 22.4 pg
MCHC (9 h): 34%
MCV (9 h): 66 fL
Mono (9 h): 7.2%
Neu (9 h): 14.4%
PT (9 h): 12.3 s
Plat (9 h): 113.9 x10_4/uL
RBC (9 h): 606 x10_4/ul
Ret (9 h): 8.6%
WBC (9 h): 92 x10_2/uL
KIDNEY_L (9 h): 1 g
KIDNEY_R (9 h): 1 g
KIDNEY_TOTAL (9 h): 1.9 g
LIVER (9 h): 8.7 g
A/G (9 h): 2.3
ALP (9 h): 824.8 IU/L
ALT (9 h): 30.8 IU/L
AST (9 h): 62 IU/L
BUN (9 h): 9.8 mg/dL
CRE (9 h): 0.5 mg/dL
Ca (9 h): 10.3 mg/dL
Cl (9 h): 105.6 meq/L
DBIL (9 h): 0.062 mg/dL
GLC (9 h): 191.8 mg/dL
IP (9 h): 10.9 mg/dL
K (9 h): 4.5 meq/L
LDH (9 h): 67 IU/L
Na (9 h): 142.4 meq/L
PL (9 h): 128 mg/dL
RALB (9 h): 3.7 g/dL
TBIL (9 h): 0.3 mg/dL
TC (9 h): 71.2 mg/dL
TG (9 h): 32.8 mg/dL
TP (9 h): 5.3 g/dL
gamma-GTP (9 h): 0.8 IU/L
TERMINAL_BW (24 h): 224.5 g
APTT (24 h): 16.7 s
Bas (24 h): 0%
Eos (24 h): 1.2%
Fbg (24 h): 203.6 mg/dL
Hb (24 h): 13.3 g/dL
Ht (24 h): 39.4%
Lym (24 h): 75.8%
MCH (24 h): 22 pg
MCHC (24 h): 33.8%
MCV (24 h): 65.2 fL
Mono (24 h): 7.2%
Neu (24 h): 16.2%
PT (24 h): 11.8 s
Plat (24 h): 117.5 x10_4/uL
RBC (24 h): 604.6 x10_4/ul
Ret (24 h): 8.8%
WBC (24 h): 109.7 x10_2/uL
KIDNEY_L (24 h): 1 g
KIDNEY_R (24 h): 1 g
KIDNEY_TOTAL (24 h): 2 g
LIVER (24 h): 10.8 g
A/G (24 h): 2.1
ALP (24 h): 1056.6 IU/L
ALT (24 h): 37.8 IU/L
AST (24 h): 66 IU/L
BUN (24 h): 17.6 mg/dL
CRE (24 h): 0.5 mg/dL
Ca (24 h): 10.7 mg/dL
Cl (24 h): 105.6 meq/L
DBIL (24 h): 0.008 mg/dL
GLC (24 h): 200.6 mg/dL
IP (24 h): 7.6 mg/dL
K (24 h): 4.8 meq/L
LDH (24 h): 76.2 IU/L
Na (24 h): 141.8 meq/L
PL (24 h): 149.8 mg/dL
RALB (24 h): 3.8 g/dL
TBIL (24 h): 0.3 mg/dL
TC (24 h): 76 mg/dL
TG (24 h): 109.6 mg/dL
TP (24 h): 5.6 g/dL
gamma-GTP (24 h): 1 IU/L
